{"source": "patent US5616606A", "about": "“Oligopeptide antiretroviral agents” (priority 1995, dated 1997)", "key": {"HBV [1]": {"test_system": "HBV", "experiment": "inhibition of HBV DNA replication in 2.2.15 cell cultures", "type": "cell-based", "details": "for INT[…] DNA MONO. / INT[…] DNA RI: 24 hours following the 9th day of treatment; for INT[…] DNA MONO. / INT[…] DNA RI / HBV VIRION DNA DAY 0 / HBV VIRION DNA DAY 6 / HBV VIRION DNA DAY 9: single well"}, "2.2.15 cells": {"test_system": "2.2.15 cells", "experiment": "toxicity analysis, neutral red dye uptake in 2.2.15 cells", "details": "triplicate, ± standard deviation"}, "SC-1 cells": {"test_system": "SC-1 cells", "experiment": "toxicity TD50 reported with the anti-MLV test", "details": "Table IV"}, "HBV [2]": {"test_system": "HBV", "details": "9 μM; relative to average levels in untreated cells; typically observed (Korba and Milman, 1991); cited from earlier work"}, "[3]": {"test_system": "Moloney murine leukemia virus (MLV)", "experiment": "anti-Moloney murine leukemia virus (MLV) plaque test", "type": "cell-based", "details": "anti-MLV plaque count"}}, "note": "Several values for one entry are separate records, joined by “and”; a condition that tells them apart may be missing. Identical values can stand only once."}
{"compound": "Nc1ccn([C@H]2CC[C@@H](CO)O2)c(=O)n1", "note": "[DDC, 2,3'-dideoxycytosine, reference compound]", "values": [{"measurement": "INT[…] DNA MONO.", "setting": "HBV [1]; 10 μM, listed as 2',3'-ddC", "value": "2.5 pg/μg CELL DNA and 2.0 pg/μg CELL DNA"}, {"measurement": "INT[…] DNA RI", "setting": "HBV [1]; 10 μM, listed as 2',3'-ddC", "value": "9 pg/μg CELL DNA and 7 pg/μg CELL DNA and 8 pg/μg CELL DNA and 5 pg/μg CELL DNA"}, {"measurement": "HBV VIRION DNA DAY 0", "setting": "HBV [1]; 10 μM, listed as 2',3'-ddC", "value": "63 pg/ml CULTURE MEDIUM and 66 pg/ml CULTURE MEDIUM and 78 pg/ml CULTURE MEDIUM and 68 pg/ml CULTURE MEDIUM"}, {"measurement": "HBV VIRION DNA DAY 6", "setting": "HBV [1]; 10 μM, listed as 2',3'-ddC", "value": "43 pg/ml CULTURE MEDIUM and 47 pg/ml CULTURE MEDIUM and 54 pg/ml CULTURE MEDIUM and 45 pg/ml CULTURE MEDIUM"}, {"measurement": "HBV VIRION DNA DAY 9", "setting": "HBV [1]; 10 μM, listed as 2',3'-ddC", "value": "7 pg/ml CULTURE MEDIUM and 5 pg/ml CULTURE MEDIUM and 6 pg/ml CULTURE MEDIUM and 8 pg/ml CULTURE MEDIUM"}, {"measurement": "INT[…] DNA MONO.", "setting": "HBV [1]; 50 μM, listed as 2',3'-ddC", "value": "1.2 pg/μg CELL DNA and 1.4 pg/μg CELL DNA and 1.8 pg/μg CELL DNA and 1.7 pg/μg CELL DNA"}, {"measurement": "INT[…] DNA RI", "setting": "HBV [1]; 50 μM, listed as 2',3'-ddC", "value": "2 pg/μg CELL DNA and 1 pg/μg CELL DNA"}, {"measurement": "HBV VIRION DNA DAY 0", "setting": "HBV [1]; 50 μM, listed as 2',3'-ddC", "value": "57 pg/ml CULTURE MEDIUM and 51 pg/ml CULTURE MEDIUM and 58 pg/ml CULTURE MEDIUM and 59 pg/ml CULTURE MEDIUM"}, {"measurement": "HBV VIRION DNA DAY 6", "setting": "HBV [1]; 50 μM, listed as 2',3'-ddC", "value": "26 pg/ml CULTURE MEDIUM and 28 pg/ml CULTURE MEDIUM and 30 pg/ml CULTURE MEDIUM and 20 pg/ml CULTURE MEDIUM"}, {"measurement": "HBV VIRION DNA DAY 9", "setting": "HBV [1]; 50 μM, zero = undetectable, cutoff 0.1 pg/ml", "value": 0, "unit": "pg/ml CULTURE MEDIUM"}, {"measurement": "effect on HBV replication (in words)", "setting": "HBV [1]; tested at 50 and 10 μM, compared with 2',3'-ddC", "value": "significant depressions of HBV DNA replication"}, {"measurement": "NEUTRAL RED DYE UPTAKE", "setting": "2.2.15 cells; 10 μg/ml", "value": "99 ± 1", "unit": "% OF CONTROL"}, {"measurement": "NEUTRAL RED DYE UPTAKE", "setting": "2.2.15 cells; 30 μg/ml", "value": "100 ± 1", "unit": "% OF CONTROL"}, {"measurement": "NEUTRAL RED DYE UPTAKE", "setting": "2.2.15 cells; 100 μg/ml", "value": "89 ± 3", "unit": "% OF CONTROL"}, {"measurement": "NEUTRAL RED DYE UPTAKE", "setting": "2.2.15 cells; 300 μg/ml", "value": "17 ± 2", "unit": "% OF CONTROL"}, {"measurement": "Toxicity, TD50", "setting": "SC-1 cells", "value": "> 100.00", "unit": "ug/mL^-1"}, {"measurement": "depression of HBV RI", "setting": "HBV [2]", "value": 90, "unit": "%"}, {"measurement": "Activity, MIC50", "setting": "[3]", "value": 0.74, "unit": "µg/mL"}]}
